In assay [1] the test system is Pan T cells isolated from C57BL6 splenocytes. Briefly: T cell function assay (IFNγ and TNFα in supernatants, MSD V-plex). It is filed as cell-based, mouse. The following applies: 30 μM compound, 3 days, supernatant. The procedure: Pan T cells were isolated from C57BL6 splenocytes using a MACS Pan T cell isolation kit II (Miltenyi Biotec, Auburn, Calif.) according to the manufacturer's instructions. Isolated T cells (200,000 cells/well in a 96 well flat-bottom plate) were cultured in RPMI 1640 supplemented with 10% FBS, […] 2-mercatoethanol, 100 U/mL penicillin, and 100 μg/mL streptomycin, and incubated with the indicated concentration of compound or DMSO in duplicates. After 1 hour, mouse T cell activator CD3/CD28 Dynabeads (ThermoFisher Scientific, Waltham, Mass.) were added at a 1:5 beads to cells ratio to stimulate the T cells for 2 or 3 days as outlined below. T cells with or without compound were incubated in the absence of T cell activator beads (media only) as control.
After 3 days of stimulation, supernatants were collected and IFNγ and TNFα in supernatants were assessed using an MSD V-plex assay (Meso Scale Discovery, Rockville, Md.).

For assay [2], the system named is B16F10 mouse melanoma cells. Nature of the assay: B16F10 IFNγ-induced cellular growth inhibition assay. It is filed as cell-based. To be noted: for inhibition at 33 µM: Mus musculus, B16-F10. Summed up: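 Live-cell imaging of confluence every 6 h over 5 days at 37 °C tracked growth of mouse B16F10 melanoma cells seeded overnight at 500/well. Semi-log compound series (final 100–0.001 μM, 0.1% DMSO) ran in both arms, ±IFNγ at 0.5 ng/mL final; inhibition taken relative to DMSO plus IFNγ when IFNγ-free DMSO wells passed 95% confluence.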

Assay [3] addresses T1, His tagged PTPN2 (TC45) protein (Homo sapiens, UniProt P17706).
T1 construct: made in house
T1 sequence (P17706 with tags, fused parts or gaps isoform P17706-2): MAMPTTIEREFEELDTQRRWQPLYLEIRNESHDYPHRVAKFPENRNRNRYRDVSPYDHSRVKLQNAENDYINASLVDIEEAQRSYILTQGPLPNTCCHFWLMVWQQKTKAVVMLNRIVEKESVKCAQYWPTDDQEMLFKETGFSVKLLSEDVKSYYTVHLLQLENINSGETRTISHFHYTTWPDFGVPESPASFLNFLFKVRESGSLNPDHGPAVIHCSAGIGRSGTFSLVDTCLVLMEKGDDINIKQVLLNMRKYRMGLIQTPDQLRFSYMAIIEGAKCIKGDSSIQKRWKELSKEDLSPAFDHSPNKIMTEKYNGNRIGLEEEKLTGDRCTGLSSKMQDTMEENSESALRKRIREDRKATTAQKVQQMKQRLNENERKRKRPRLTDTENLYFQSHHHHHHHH
Briefly: Mobility shift assay (MSA) for potency of PTPN2 inhibitors. The assay is classed as biochemical. Summed up:
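IC50 values were derived from % inhibition of substrate conversion, measured by microfluidic mobility shift (ex 488/em 530) after quenching. The fluorescent phosphotyrosine insulin-receptor peptide ([…]) reacted for 10 min at room temperature with 0.5 nM His-tagged TC45 PTPN2 that had been preincubated 10 min with compound (12 points, 1:3). Buffer was HEPES pH 7.5 with EGTA, EDTA, Tween 20 and DTT.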

The mark [4] stands for this setting: anti-CD3/anti-CD28 Dynabeads (1:5 beads:cells).
[5] abbreviates: +0.5 ng/mL IFNγ, 33 μM compound, relative to DMSO control, read-out: % B16F10 growth inhibition (+0.5 ng/mL IFNγ) @ 33 μM.
Setting [6] is: no IFNγ, 33 μM compound, read-out: % B16F10 growth inhibition (no IFNγ) @ 33 μM.

Where two headings read alike, the source gives them in different places.

One may read the IC50 as the concentration that inhibits the measured activity by half. For the compound `CC(C)(O)CCOc1ccc2cc(O)c(N3CC(=O)NS3(=O)=O)c(F)c2c1` [Compound 182, 5-[1-fluoro-3-hydroxy-7-(3-hydroxy-3-methylbutoxy)naphthalen-2-yl]-1λ^6,2,5-thiadiazolidine-1,1,3-trione], in assay [1] (setting [4]), the “IFNγ” value came out at 189 ng/mL and the “TNFα” value came out at 135 ng/mL. Further, the inhibition at 33 µM in assay [2] (setting [5]) was 60 to 90%. The inhibition at 33 µM in assay [2] (setting [6]) was under 25%. Besides, the IC50 in assay [3] (read-out: PTPN2 MSA IC50) was under 1 nM.

With `COc1ccc2cc(O)c(N3CC(=O)NS3(=O)=O)c(F)c2c1` [Compound 124, 5-(1-fluoro-3-hydroxy-7-methoxynaphthalen-2-yl)-1λ^6,2,5-thiadiazolidine-1,1,3-trione], the figures for the “IFNγ” value in assay [1] (setting [4]) and in assay [1] (no TCR stimulation) were 435 ng/mL and 1.2 ng/mL, respectively. The “TNFα” value in assay [1] (setting [4]) worked out at 195 ng/mL; in assay [1] (no TCR stimulation) it was 1.4 ng/mL. Besides, the inhibition at 33 µM in assay [2] (33 μM, in the presence of IFNγ, read-out: growth inhibition in the presence of IFNγ compared to DMSO controls) is 60 to 90%; in assay [2] (setting [5]) it was 60 to 90%; in assay [2] (setting [6]), under 25%. The “% B16F10 growth inhibition (+0.5 ng/mL IFNγ) @ 33 μM” value in assay [2] (Table 4, +0.5 ng/mL IFNγ, 33 μM) is “B (a percent growth inhibition of 60-90%)”. In assay [2] (Table 4, no IFNγ, 33 μM), the “% B16F10 growth inhibition (no IFNγ) @ 33 μM” value is “D (a percent growth inhibition of <25%)”. In addition, the “growth inhibition in the absence of IFNγ” value in assay [2] (absence of IFNγ) is listed as “no observed growth inhibition”. Besides, the IC50 in assay [3] (Table 4, read-out: PTPN2 MSA IC50) is 1 to 10 nM; in assay [3] (read-out: PTPN2 IC50) it was 4.4 nM; in assay [3] (read-out: PTPN2 MSA IC50), 1 to 10 nM.

Values taken from patent US20210009542A1 (Calico Life Sciences LLC, priority 2018, published 2021).
